# Assay results reported in ChEMBL document CHEMBL3044783, “Effects of pyrrolizidine alkaloids on the performance of plant-parasitic and free-living nematodes” (Pest Manag Sci, 2009).
# Calls of active or inactive are those of the source. No cut-off for these calls is given here.
# Assays:
# Meloidogyne incognita [1] = test: Nematicidal activity against juvenile stage of Meloidogyne incognita (root-knot nematode) assessed as inhibition of mobility incubated for 168 hr followed by compound wash out measured after 24 hr; format: functional
# Heterodera schachtii [2] = test: Nematicidal activity against juvenile stage of Heterodera schachtii assessed as inhibition of mobility after 20 hr; format: functional
# Meloidogyne incognita [3] = test: Nematicidal activity against juvenile stage of Meloidogyne incognita (root-knot nematode) assessed as inhibition of mobility after 20 hr; format: functional
# Heterodera schachtii [4] = test: Nematicidal activity against juvenile stage of Heterodera schachtii assessed as inhibition of mobility incubated for 168 hr followed by compound wash out measured after 24 hr; format: functional
# Meloidogyne incognita [5] = test: Nematicidal activity against juvenile stage of Meloidogyne incognita (root-knot nematode) assessed as inhibition of mobility after 168 hr; format: functional
# Heterodera schachtii [6] = test: Nematicidal activity against juvenile stage of Heterodera schachtii assessed as inhibition of mobility after 168 hr; format: functional
# [7] = Stability of the compound assessed as apperance of pyrroles at 5 mg/mL after 24 to 168 hr by thin layer chromatographic analysis under UV light and hot temperature; format: physicochemical
# Rhabditis sp. [8] = test: Nematicidal activity against juvenile stage of Rhabditis sp. assessed as inhibition of mobility after 168 hr; format: functional
# [9] = Stability of the compound assessed as apperance of new pyrrolizidine alkaloids at 5 mg/mL after 24 to 168 hr by thin layer chromatographic analysis under UV light and cold temperature; format: physicochemical
# Meloidogyne incognita [10] = test: Ovicidal activity against Meloidogyne incognita (root-knot nematode) assessed as egg hatching at 1 mg/mL after 24 hr (reference value: 3%); format: functional
# [11] = Stability of the compound assessed as conversion of N-oxide to free base at 5 mg/mL after 24 to 168 hr by thin layer chromatographic analysis under UV light and hot temperature; format: physicochemical
# [12] = Stability of the compound assessed as apperance of new pyrrolizidine alkaloids at 5 mg/mL after 24 to 168 hr by thin layer chromatographic analysis under cold temperature; format: physicochemical
# Pratylenchus penetrans [13] = test: Nematicidal activity against juvenile stage of Pratylenchus penetrans assessed as inhibition of mobility incubated for 168 hr followed by compound wash out measured after 24 hr; format: functional
# [14] = Stability of the compound assessed as apperance of pyrroles at 5 mg/mL after 24 to 168 hr by thin layer chromatographic analysis under UV light and cold temperature; format: physicochemical
# Rhabditis sp. [15] = test: Repellent activity against juvenile stage of Rhabditis sp. at 1 mg/mL after 40 hr by stereomicroscopic analysis (reference value: 50%); format: functional
# Meloidogyne incognita [16] = test: Repellent activity against juvenile stage of Meloidogyne incognita (root-knot nematode) at 1 mg/mL after 20 hr by stereomicroscopic analysis (reference value: 50%); format: functional
# [17] = Stability of the compound assessed as conversion of N-oxide to free base at 5 mg/mL after 24 to 168 hr by thin layer chromatographic analysis under cold temperature; format: physicochemical
# [18] = Stability of the compound assessed as apperance of new pyrrolizidine alkaloids at 5 mg/mL after 24 to 168 hr by thin layer chromatographic analysis under UV light and hot temperature; format: physicochemical
# [19] = system: Phasmarhabditis hermaphrodita; test: Nematicidal activity against juvenile stage of Phasmarhabditis hermaphrodita of assessed as inhibition of mobility after 20 hr; format: functional, organism-based
# [20] = Stability of the compound assessed as conversion of N-oxide to free base at 5 mg/mL after 24 to 168 hr by thin layer chromatographic analysis under UV light and cold temperature; format: physicochemical
# Meloidogyne incognita [21] = test: Repellent activity against juvenile stage of Meloidogyne incognita (root-knot nematode) at 0.1 mg/mL after 40 hr by stereomicroscopic analysis (reference value: 51%); format: functional
# [22] = Stability of the compound assessed as conversion of N-oxide to free base at 5 mg/mL after 24 to 168 hr by thin layer chromatographic analysis under hot temperature; format: physicochemical
# Pratylenchus penetrans [23] = test: Nematicidal activity against juvenile stage of Pratylenchus penetrans assessed as inhibition of mobility after 20 hr; format: functional
# [24] = system: Phasmarhabditis hermaphrodita; test: Nematicidal activity against juvenile stage of Phasmarhabditis hermaphrodita of assessed as inhibition of mobility incubated for 168 hr followed by compound wash out measured after 24 hr; format: functional; conditions: Pellioditis hermaphrodita
# Rhabditis sp. [25] = test: Nematicidal activity against juvenile stage of Rhabditis sp. assessed as inhibition of mobility after 20 hr; format: functional, organism-based
# Rhabditis sp. [26] = test: Repellent activity against juvenile stage of Rhabditis sp. at 0.1 mg/mL after 40 hr by stereomicroscopic analysis (reference value: 50%); format: functional
# Pratylenchus penetrans [27] = test: Nematicidal activity against juvenile stage of Pratylenchus penetrans assessed as inhibition of mobility after 168 hr; format: functional
# Rhabditis sp. [28] = test: Repellent activity against juvenile stage of Rhabditis sp. at 0.1 mg/mL after 20 hr by stereomicroscopic analysis (reference value: 48%); format: functional
# [29] = system: Phasmarhabditis hermaphrodita; test: Nematicidal activity against juvenile stage of Phasmarhabditis hermaphrodita of assessed as inhibition of mobility after 168 hr; format: functional
# [30] = Stability of the compound assessed as apperance of new pyrrolizidine alkaloids at 5 mg/mL after 24 to 168 hr by thin layer chromatographic analysis under hot temperature; format: physicochemical
# [31] = Stability of the compound assessed as apperance of pyrroles at 5 mg/mL after 24 to 168 hr by thin layer chromatographic analysis under cold temperature; format: physicochemical
# Meloidogyne incognita [32] = test: Repellent activity against juvenile stage of Meloidogyne incognita (root-knot nematode) at 1 mg/mL after 40 hr by stereomicroscopic analysis (reference value: 51%); format: functional
# Rhabditis sp. [33] = test: Repellent activity against juvenile stage of Rhabditis sp. at 1 mg/mL after 20 hr by stereomicroscopic analysis (reference value: 48%); format: functional
# [34] = Stability of the compound assessed as apperance of pyrroles at 5 mg/mL after 24 to 168 hr by thin layer chromatographic analysis under hot temperature; format: physicochemical
# Meloidogyne incognita [35] = test: Repellent activity against juvenile stage of Meloidogyne incognita (root-knot nematode) at 0.1 mg/mL after 20 hr by stereomicroscopic analysis (reference value: 50%); format: functional
# Meloidogyne incognita [36] = test: Ovicidal activity against Meloidogyne incognita (root-knot nematode) assessed as egg hatching at 1 mg/mL after 336 hr (reference value: 54%); format: functional
# [37] = Stability of the compound assessed as apperance of new pyrrolizidine alkaloids at 5 mg/mL after 166 hr by thin layer chromatographic analysis under cold temperature; format: physicochemical
# [38] = Stability of the compound assessed as conversion of free base to N-oxide at 5 mg/mL after 24 to 168 hr by thin layer chromatographic analysis under UV light and cold temperature; format: physicochemical
# [39] = Stability of the compound assessed as apperance of new pyrrolizidine alkaloids at 5 mg/mL after 166 hr by thin layer chromatographic analysis under hot temperature; format: physicochemical
# [40] = Stability of the compound assessed as apperance of new pyrrolizidine alkaloids at 5 mg/mL after 24 hr by thin layer chromatographic analysis under cold temperature; format: physicochemical
# [41] = Stability of the compound assessed as conversion of free base to N-oxide at 5 mg/mL after 24 to 168 hr by thin layer chromatographic analysis under cold temperature; format: physicochemical
# [42] = Stability of the compound assessed as conversion of free base to N-oxide at 5 mg/mL after 24 to 168 hr by thin layer chromatographic analysis under UV light and hot temperature; format: physicochemical
# [43] = Stability of the compound assessed as apperance of pyrroles at 5 mg/mL after 24 hr by thin layer chromatographic analysis under hot temperature; format: physicochemical
# [44] = Stability of the compound assessed as apperance of new pyrrolizidine alkaloids at 5 mg/mL after 24 hr by thin layer chromatographic analysis under hot temperature; format: physicochemical
# [45] = Stability of the compound assessed as apperance of pyrroles at 5 mg/mL after 166 hr by thin layer chromatographic analysis under hot temperature; format: physicochemical
# [46] = Stability of the compound assessed as conversion of free base to N-oxide at 5 mg/mL after 24 to 168 hr by thin layer chromatographic analysis under hot temperature; format: physicochemical
Compound,MIC50 (Meloidogyne incognita [1]),MIC50 (Heterodera schachtii [2]),MIC50 (Meloidogyne incognita [3]),MIC50 (Heterodera schachtii [4]),MIC50 (Meloidogyne incognita [5]),MIC50 (Heterodera schachtii [6]) [µg/mL],Stability [7],MIC50 (Rhabditis sp. [8]) [µg/mL],Stability [9],Activity (Meloidogyne incognita [10]) [%],MIC50 (Pratylenchus penetrans [13]),Stability [14],Repellency (Rhabditis sp. [15]) [%],Repellency (Meloidogyne incognita [16]) [%],Stability [18],MIC50 [19],Repellency (Meloidogyne incognita [21]) [%],MIC50 (Pratylenchus penetrans [23]),MIC50 (Rhabditis sp. [25]),Repellency (Rhabditis sp. [26]) [%],other results
C/C=C(/C)C(=O)O[C@H]1CCN2CC=C(COC(=O)[C@](O)([C@H](C)OC)C(C)(C)O)[C@H]12 [LASIOCARPINE],1000 µg/mL,inactive,inactive,1000 µg/mL,500 µg/mL,3800,–,–,–,–,–,–,–,–,–,–,–,–,–,–,–
C[C@H]1C(=O)O[C@@H]2CC[N+]3([O-])CC=C(COC(=O)[C@](C)(O)[C@]1(C)O)[C@H]23 (stereo not given in full) [MONOCROTALINE N-OXIDE],inactive,inactive,inactive,37100 µg/mL,inactive,700,Stable,21200,Stable,7,inactive,Stable,100,54,Stable,inactive,51,inactive,inactive,90,Stability [11]: Stable; Stability [12]: Stable; Stability [17]: Stable; Stability [20]: Stable; Stability [22]: Stable; MIC50 [24]: 17500 µg/mL; MIC50 (Pratylenchus penetrans [27]): inactive; Repellency (Rhabditis sp. [28]): 89%; MIC50 ([29]; Pellioditis hermaphrodita): 13700 µg/mL; Stability [30]: Stable; Stability [31]: Stable; Repellency (Meloidogyne incognita [32]): 56%; Repellency (Rhabditis sp. [33]): 95%; Stability [34]: Stable; Repellency (Meloidogyne incognita [35]): 52%; Activity (Meloidogyne incognita [36]): 16%
C[C@H]1C(=O)O[C@@H]2CCN3CC=C(COC(=O)[C@](C)(O)[C@]1(C)O)[C@H]23 [MONOCROTALINE],400 µg/mL,inactive,31500 µg/mL,1700 µg/mL,300 µg/mL,2000,Unstable,150,Unstable,2,5800 µg/mL,Unstable,93,55,Unstable,inactive,52,25900 µg/mL,inactive,49,Stability [37]: Unstable; Stability [38]: Stable; Stability [39]: Unstable; Stability [40]: Stable; Stability [41]: Stable; Stability [42]: Stable; Stability [43]: Stable; Stability [44]: Stable; MIC50 (Pratylenchus penetrans [27]): 1800 µg/mL; Repellency (Rhabditis sp. [28]): 45%; MIC50 [29]: inactive; Repellency (Meloidogyne incognita [32]): 52%; Stability [45]: Unstable; Repellency (Rhabditis sp. [33]): 92%; Repellency (Meloidogyne incognita [35]): 51%; Activity (Meloidogyne incognita [36]): 29%; Stability [46]: Stable
C/C=C1/C[C@@H](C)[C@@](C)(O)C(=O)OCC2=CC[N+]3([O-])CC[C@@H](OC1=O)[C@@H]23 (stereo not given in full) [SENECIONINE N-OXIDE],inactive,7200 µg/mL,inactive,inactive,2900 µg/mL,3400,–,–,–,–,–,–,–,–,–,–,–,–,–,–,–
